Reference: patent US9115061B2, “Naphthalene-based inhibitors of anti-apoptotic proteins” (BURNHAM INSTITUTE FOR MEDICAL RESEARCH, priority 2007, dated 2015)

Legend:
Mcl-1 = Mcl-1 (Homo sapiens (Human), UniProt Q07820); settings: cited from earlier work
H1299 = settings: cited from earlier work
RS11846 cell line [1] = experiment: Apoptosis, Annexin V and propidium iodide assay; type: cell-based, human; settings: 1-2 days; read-out: RS11846 EC50 (Annexin V- and propidium iodide assay)
Method: The apoptotic activity of the compounds against RS11846 cells was assessed by staining with Annexin V- and propidium iodide (PI). Lymphoma cell line, RS11846, was cultured in RPMI 1640 medium (Mediatech Inc., Herndon, Va. 20171) containing 10% fetal bovine serum (Mediatech Inc., Herndon, Va. 20171) and Penicillin/Streptomycin (Mediatech Inc., Herndon, Va. 20171). […] The percentage of viable cells was determined by FITC-Annexin V- and propidium iodide (PI)-labeling, using an Apoptosis Detection kit (BioVision Inc.), and analyzing stained cells by flow cytometry (FACSort; Bectin-Dickinson, Inc.; Mountain View, Calif.). Cells that were annexin-V-negative and PI-negative were considered viable.

PC3ML cells = experiment: Cell viability, ATP-LITE assay; type: cell-based, human
Method: (§1) The activity of the compounds against human cancer cell lines (PC3ML, H460, H1299, RS11846) were assessed by using the ATP-LITE assay (PerkinElmer). All cells were seeded in either F12 or RPMI1640 medium with 5 mM L-glutamine supplemented with 5% fetal bovine serum (Mediatech Inc.), penicillin and streptomycin (Omega). For maintenance, cells were cultured in 5% FBS. Cells plated into 96 well plates at varying initial densities depending on doubling time. H460 and H1299 plated at 2000 cells/well, A549 and PC3 at 3000 cells/well, and RS118456S at 10,000 cells/well. Compounds were diluted to final concentrations with 0.1% DMSO. Prior to dispensing compounds onto cells, fresh 5% media was placed into wells. Administration of compounds occurred 24 hours after seeding into the fresh media. Cell viability was evaluated using ATP-LITE reagent (PerkinElmer) after 72 hours of treatment. Data were normalized to the DMSO control-treated cells using Prism version 5.01 (Graphpad Software).

RS11846 cell line [2] = experiment: Cell viability, ATP-LITE assay; type: cell-based, human; settings: 72 hours
Method: as §1

H460 cell line = experiment: Cell viability, ATP-LITE assay; type: cell-based, human; settings: for EC50: 72 hours, ATP-LITE
Method: as §1

[3] = system: murine B-cells from BCL-2 transgenic mice; experiment: Viability of cultured splenocytes, Annexin V-FITC/PI; type: cell-based; settings: 18 hours; read-out: IC50, induction of apoptosis in cultured B-cells of BCL-2 transgenic mouse
Method: (§2) Spleens were excised from sacrificed mice and cell suspensions treated with a mouse erythrocyte lysing kit (R & D Systems). Total splenocyte count was determined by typan blue dye exclusion assays using hemocytometers. The percentage of B-lymphocytes was determined by fluorescence activated cell sorter (FACS) analysis SACS-CANTO, Bectin-Dickinson Inc., Mountain View, Calif.) following staining cells with Phyco-Erytrin (PE)-conjugated anti-CD19 or -B220 antibodies (Becton Dickinson, San Jose, Calif. 95131).
After 18 hours of incubation, % viability of splenocytes was determined by FACSort after staining cells by the use of an Annexin V-FITC/PI Apoptosis Detection kit (BioVision Inc.). Viable cells were defined by Annexin V-negative, PI-negative cells.

Plasma stability = type: in vitro ADME, rat; settings: for Plasma Stability (T = 1 hr): rat plasma, 37.5° C.
Method: A 20 μL aliquot of a 10 mM solution in DMSO of the test compound was added to […] of heparinized rat plasma (Lampire, P1-150N) to obtain a 100 μM final solution. The mixture was incubated for 1 h at 37.5° C. Aliquots of 100 μL were taken (0, 30 min, 1 h) and diluted with 200 μL of MeOH containing internal standard.

Balb/c mice = experiment: Oral toxicity study in normal Balb/c mice; type: in vivo, mouse
Method: Compounds or vehicle control were dosed 15 times over 3 weeks, giving compounds daily for 5 consecutive days (Monday-Friday), resting on weekends.
Both compounds were provided by NCI-DTP (RAID-program). Compounds were dissolved in 100% sesame oil just before oral administration. Vehicle-control consisted of corresponding concentration of ascorbic acid suspended in 100% sesame oil.
(§3) Spleens were removed and weighed.
Whole blood (250 μl) was collected in EDTA-coated glass tubes (purple top; MICROTAINER Brand Tube with EDTA, Catalogue #365973, Becton, Dickinson and Company, New Jersey 07417-1885) via either cardiac puncture or severing the brachial artery of anesthetized mice. After thorough mixing, specimens were analyzed using a VetScan HM2 (Abaxis Inc., Union City, Calif. 94587) hematology analyzer, measuring white blood cell count (WBC), red blood cell count (RBC), platelet (PLT) count, leukocyte differential (including % lymphocyte, % monocyte and % granulocyte), hematocrit (Ht), and hemoglobin (Hb).
(Eppendorf Centrifuge 5415C) for 2 minutes to separate serum from cells and fibrin clot. The resulting serum specimens were analyzed using an automated blood chemistry analyzer (“COBAS MIRA Classic”; Roche, Indianapolis, Ind. 46250-0414) to measure alanine aminotransferase (ALT) and aspartate aminotransferase AST), blood urea nitrogen (BUN), and […].
Stomach and intestines were examined also imaged by ultrasound for evidence of dilation, an indication of GI toxicity. Briefly, mice were anesthetized using a mixture of isofluorane (5%) and oxygen gas (95%), restrained on a heated table using Aquagel Lubrication Gel (Parker Laboratories, Inc., Fairfield, N.J. 07004), and abdominal hair was removed with a chemical depilation agent (Nair™ Hair Removal, Church & Dwight Co., Inc., Princeton, N.J. 08543). Aquasonic 100 Ultrasound Transmission Gel (Parker Laboratories, Inc., Fairfield, N.J. 07004) was applied to the abdomen prior to imaging using a high-frequency probe to assess gas and intestinal distention.
Immediately after ultrasound imaging, electrocardiogram (ECG) analysis of anesthetized mice was performed using a MP150 Biopack System.

[4] = PAMPA (parallel artificial membrane permeation assay); settings: for Cell Permeability: PAMPA, pH 7.2, 8 h
Method: PAMPA is parallel artificial membrane permeation assay. A 96-well microtiter plate (Millipore, # MSSACCEPTOR) was completely filled with aqueous buffer solution (pH 7.2) and covered with a microtiter filterplate (Millipore, # MAPBMN310). The hydrophobic filter material was impregnated with a 10% solution of hexadecane in hexane and the organic solvent was allowed to completely evaporate. Permeation studies were started by the transfer of 200 μL of a 100 μM test compound solution on top of the filterplate. In general phosphate buffer at pH 7.2 buffer was used. The maximum DMSO content of the stock solutions was <5%. In parallel, an equilibrium solution lacking a membrane was prepared using the exact concentrations and specifications but lacking the membrane. The concentrations of the acceptor and equilibrium solutions were determined using the Shimadzu LCMS-2010EV and AUC methods. The permeation of a compound through the membrane layer is described by the percentage permeation (% flux). The flux values were calculated considering the concentration of the acceptor compartment after 8 h and that of a reference well with the same concentration containing no membrane barrier.

[5] = Liver microsomal stability; settings: rat liver microsomes, 4 μM, 60 min
Method: Pooled rat liver microsomes (BD Biosciences, #452701) were preincubated with test compounds at 37.5° C. for 5 min in the absence of NADPH. The reaction was initiated by addition of NADPH and then incubated under the same conditions. […] One aliquot (100 μL) of the incubation mixture was withdrawn at 0, 15, 30, and 60 min and combined immediately with 200 μL of ACN/MeOH containing an internal standard. After mixing, the sample was centrifuged at approximately 13,000 rpm for 12 min. The supernatant was transferred into an autosampler vial and the amount of test compound was quantified using the Shimadzu LCMS 2010EV mass spectrometer. The change of the AUC (area under the curve) of the parent compound as function of time was used as a measure of microsomal stability.

RS11846 cell line [6] = experiment: Apoptosis induction in NHL B-cell lines, Annexin V-FITC/PI; type: cell-based; settings: 48 hours; read-out: IC50, % viability RS11846
Method: (§4) After 48 hours of incubation, % viability was determined by FACSort after staining cells by the use of an Annexin V-FITC/PI Apoptosis Detection kit (BioVision Inc.). Viable cells were defined by Annexin V-negative, PI-negative cells.

380 cell line = experiment: as above; type: cell-based; settings: 48 hours, relative to DOHH2 and RS11846
Method: as §4

DOHH2 cell line = experiment: as above; type: cell-based; settings: 48 hours; read-out: IC50, % viability DOHH2
Method: as §4

GST-BCL-2 = GST-BCL-2 (Homo sapiens (Human), UniProt P10415); experiment: Fluorescence polarization assay (FITC-Bim BH3 peptide); type: binding; settings: for EC50: read-out: EC50 FPA BCL-2
Method: (§5) After 30 min incubation at room temperature, the polarization values in millipolarization units were measured at excitation/emission wavelengths of 480/535 nm with a multilabel plate reader (PerkinElmer). IC50 was determined by fitting the experimental data to a sigmoidal dose-response nonlinear regression model (SigmaPlot 10.0.1, Systat Software, Inc., San Jose, Calif., USA). Data reported are mean of three independent experiments ±standard error (SE). Performance of BCL-2 and Mcl-1 FPA are similar. […] Fluorescence polarization was measured after 10 min.

BCL-2 transgenic mice = experiment: Oral efficacy study in BCL-2 transgenic mice (splenomegaly); type: in vivo, mouse
Method: The transgene was propagated on the Balb/c background.
as §3, §2
Representative data are shown by FIGS. 11A and 11B.

GST-Mcl-1 = GST-Mcl-1 (Homo sapiens (Human), UniProt Q07820); experiment: Fluorescence polarization assay (FITC-Bim BH3 peptide); type: binding
Method: as §5, with “(SE).” for “(SE). Performance of BCL-2 and Mcl-1 FPA are similar.”

GST-BCL-XL ΔTM protein = GST-BCL-XL ΔTM protein (Homo sapiens (Human), UniProt Q07817); experiment: Competitive fluorescence polarization assay (FITC-Bak BH3 peptide); type: binding
Method: For competitive binding assays, 100 nM GST-BCL-XL ΔTM protein was preincubated with the tested compound at varying concentrations in 47.5 μL PBS (pH=7.4) in 96-well black plates at room temperature for 10 min, then 2.5 μL of 100 nM FITC-labeled Bak BH3 peptide was added to produce a final volume of 50 μL. The wild-type and mutant Bak BH3 peptides were included in each assay plate as positive and negative controls, respectively.
IC50 was determined by fitting the experimental data to a sigmoidal dose-response nonlinear regression model (SigmaPlot 10.0.1, Systat Software, Inc., San Jose, Calif., USA). Data reported are mean of three independent experiments ±standard error (SE). […] Fluorescence polarization was measured after 10 min.

B6BCL2 mouse = experiment: Spleen weight in B6BCL2 transgenic mice after intraperitoneal injection; type: in vivo
Method: Transgenic mice expressing BCL-2 have been described as the B6 line. The BCL-2 transgene represents a minigene version of a t(14;18) translocation in which the human BCL-2 gene is fused with the immunoglobulin heavy-chain (IgH) locus and associated IgH enhancer. The transgene was propagated on the Balb/c background.
After 24 hours, B6BCL2 mice were sacrificed by intraperitoneal injection of lethal dose of Avertin. Spleen was removed and weighed. […] Spleen tissue was fixed in z-FIX for 3 days and rinsed in PBS, and saved for histological analysis of spleen (H&E staining and TUNEL assay).

BCL-XL [7] = target: T1, BCL-XL (Homo sapiens (Human), UniProt Q07817); experiment: Isothermal titration calorimetry (ITC); type: binding
Method: Titrations were performed using a VP-ITC or ITC200 calorimeter from Microcal (Northampton, Mass.). BCL-XL was used at concentrations between 25 and 100 μM in 20 mM sodium phosphate buffer (pH 7.4) and 5-10% DMSO. Titrants were used at concentrations 10-15× of the protein in the same buffer. Titrations were carried out at 25° C. Data were analyzed using Microcal Origin software provided by the ITC manufacturer (Microcal, Northampton, Mass.).

BCL-XL [8] = target: T1, BCL-XL; experiment: 1D 1H-NMR binding assay; on 1D 1H-NMR Binding Assay (BCL-XL): key: +++: Very Active; ++: Active; +: Mild; −: Weak
Method: By observing the aliphatic region of the spectra, binding could be readily detected due to chemical shift changes in active site methyl groups of Ile, Leu, Thr, Val or Ala (region between −0.8 and 0.3 ppm). All experiments were performed with a 600 MHz spectrometer Bruker Avance 600 equipped with four rf channels and z-axis pulse-field gradients.

Sequence of GST-BCL-2 (P10415 whole entry): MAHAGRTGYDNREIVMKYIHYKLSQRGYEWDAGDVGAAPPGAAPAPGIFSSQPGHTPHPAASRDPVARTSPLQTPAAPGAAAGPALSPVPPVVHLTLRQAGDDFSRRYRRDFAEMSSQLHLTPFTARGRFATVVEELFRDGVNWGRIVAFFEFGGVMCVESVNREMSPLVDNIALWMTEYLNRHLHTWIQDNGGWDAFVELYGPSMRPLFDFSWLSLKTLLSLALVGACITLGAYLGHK
T1 sequence (Q07817 whole entry): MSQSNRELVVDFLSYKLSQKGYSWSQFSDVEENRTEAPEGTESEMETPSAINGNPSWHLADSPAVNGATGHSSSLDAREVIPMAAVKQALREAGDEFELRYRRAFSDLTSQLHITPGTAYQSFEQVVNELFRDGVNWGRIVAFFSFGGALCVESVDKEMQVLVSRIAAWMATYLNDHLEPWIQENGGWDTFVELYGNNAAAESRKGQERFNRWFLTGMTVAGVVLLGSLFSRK
Sequence of GST-BCL-XL ΔTM protein (Q07817 1-209): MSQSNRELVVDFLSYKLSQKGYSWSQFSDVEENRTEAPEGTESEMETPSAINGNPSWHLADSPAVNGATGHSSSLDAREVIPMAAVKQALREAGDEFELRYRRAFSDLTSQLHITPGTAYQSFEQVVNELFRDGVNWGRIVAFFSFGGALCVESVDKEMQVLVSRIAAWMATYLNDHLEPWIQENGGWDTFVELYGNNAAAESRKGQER
Sequence of GST-Mcl-1 (Q07820 whole entry): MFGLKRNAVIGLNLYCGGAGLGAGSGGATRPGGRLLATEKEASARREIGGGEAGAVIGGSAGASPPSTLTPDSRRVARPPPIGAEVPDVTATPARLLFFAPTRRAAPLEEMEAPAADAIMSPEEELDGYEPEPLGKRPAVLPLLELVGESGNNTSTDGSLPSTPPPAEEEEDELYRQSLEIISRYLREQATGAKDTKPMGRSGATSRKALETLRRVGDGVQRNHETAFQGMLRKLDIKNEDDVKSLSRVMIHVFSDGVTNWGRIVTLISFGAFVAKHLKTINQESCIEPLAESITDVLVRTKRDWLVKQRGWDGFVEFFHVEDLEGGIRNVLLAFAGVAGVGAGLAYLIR
Sequence of Mcl-1 (Q07820 whole entry): as above

For CN(C)CC[C@H](CSc1ccccc1)Nc1ccc(S(=O)(=O)NC(=O)c2ccc(N3CCN(Cc4ccccc4-c4ccc(Cl)cc4)CC3)cc2)cc1[N+](=O)[O-] [ABT-737], the “effectiveness against Mcl-1” value (Mcl-1) is listed as “not effective” and the “killing of Mcl-1 overexpressing cell lines such as H1299” value (H1299) is listed as “not effective in killing”.
Cc1cc2c(C(C)C)c(O)c(O)cc2c(O)c1-c1c(C)cc2c(C(C)C)c(O)c(O)cc2c1O [Apogossypol, apogossypol] gave an EC50 (RS11846 cell line [1]) of 8600 nM, an EC50 (PC3ML cells; 72 hours, ATP-LITE) of 10300 nM and an EC50 (RS11846 cell line [2]) of 5000 nM. The EC50 (H460 cell line) was 2800 nM, the EC50 (H460 cell line; listed as apogossypol) was 3400 nM and the IC50 [3] was 1000 to 2000 nM. For the same molecule, the “Plasma Stability (T = 1 hr)” value (Plasma stability) was 53%, the mice found dead (Balb/c mice; […] oral, day 18 of treatment) was “One of 6” and the “general condition of mice” value (Balb/c mice; […] oral, three weeks) was “remained active and apparently healthy”. For the same molecule, the “toxicity, preliminary maximum tolerated dose (MTD) studies” value (Balb/c mice; orally or by intraperitoneal injection) was “less toxic than gossypol”, the “Cell Permeability” value [4] was “Low” and the “Microsomal Stability (T = 1 hr)” value [5] was 60%. For the same molecule, the IC50 (RS11846 cell line [6]) was about 3000 nM, the “sensitivity of 380 cell line” value (380 cell line) was “slightly more resistant” and the IC50 (DOHH2 cell line) was about 3000 nM. For the same molecule, the EC50 (GST-BCL-2) was 2800 nM, the “tolerability, low dose” value (BCL-2 transgenic mice; 0.06 mmol/kg oral, QDX5 for 3 weeks) was “well tolerated” and the “shrinkage of spleen, low dose” value (BCL-2 transgenic mice; 0.06 mmol/kg oral, QDX5 for 3 weeks, wet weight and B-cell count) was “induced shrinkage of spleen to a significant extent”. For the same molecule, the “spleen size, high dose” value (BCL-2 transgenic mice; […] daily oral) was “reduced roughly by half” and the “tolerability, high dose” value (BCL-2 transgenic mice; […] oral, QDX5 for 3 weeks) was “well tolerated”.
In the case of Cc1cc2c(C(=O)Cc3ccccc3)c(O)c(O)cc2c(O)c1-c1c(C)cc2c(C(=O)Cc3ccccc3)c(O)c(O)cc2c1O [Compound I, 1,1′-(1,1′,6,6′,7,7′-hexahydroxy-3,3′-dimethyl-2,2′-binaphthyl-5,5′-diyl)bis(2-phenylethanone)], the EC50 (RS11846 cell line [1]) is reported as 4900 nM, the “fold more potent than apogossypol, Mcl-1 FPA” value (GST-Mcl-1) is reported as about 5 fold and the EC50 (GST-Mcl-1; read-out: EC50 FPA Mcl-1) is reported as 520 nM. The “times more effective than apogossypol, FP displacement BCL-XL” value (GST-BCL-XL ΔTM protein) was about 20 times, the EC50 (GST-BCL-XL ΔTM protein; Table 3, read-out: EC50 FPA BCL-XL) was 190 nM and the “fold more potent than apogossypol, PC3ML EC50” value (PC3ML cells) was 2-5 fold. The “times more potent than apogossypol, H460 EC50” value (H460 cell line) was 4-5 times, the macroscopic toxicity (B6BCL2 mouse; mouse, in vivo) was “no macroscopic toxicity” and the “reduction in spleen weight, single mouse” value (B6BCL2 mouse; single BCL-2 transgenic mouse, 60 μmol/kg, intraperitoneal, 24 hours) was 40%. The “reduction of spleen weight, groups of six mice” value (B6BCL2 mouse; six mice, P<0.0001 vs control) was about 40%, the “degraded after 1 hour incubation in rat plasma” value (Plasma stability; 1 hour) was 15% and the “Plasma Stability (T = 1 hr)” value (Plasma stability) was 85%. For the same molecule, the “times more potent than apogossypol, Kd ITC BCL-XL” value (BCL-XL [7]) was 10 times, the Kd (BCL-XL [7]; 25° C., pH 7.4) was 170 nM and the “cell membrane permeability compared to apogossypol” value [4] was “improved”. For the same molecule, the “Cell Permeability” value [4] was “Medium”, the “Microsomal Stability (T = 1 hr)” value [5] was 64% and the “fold more potent than apogossypol, BCL-2 FPA” value (GST-BCL-2) was “approximately 8 fold”. For the same molecule, the EC50 (GST-BCL-2) was 360 nM, the “chemical shift changes in active site methyl groups of BCL-XL” value (BCL-XL [8]; 1D 1H-NMR spectra) was “significant chemical shift changes” and the “1D 1H-NMR Binding Assay (BCL-XL)” value (BCL-XL [8]; 4-point-rating scale, compounds 200 μM, BCL-XL 25 μM) was “+++”.
